Like-named read-outs stand apart in the source and are kept apart here. One block for each compound: values may come before it.
What was measured:
[1] = Partition coefficient (K) in two-phase solvent systems, test tube procedure; format: physicochemical
Experimental: Each solvent system was prepared by equilibrating the solvent mixture, excluding the ligand, in a separatory funnel at room temperature. After two clear layers were formed, the two phases were separated. Then, a desired amount of the ligand was added to the organic phase which was then used as the stationary phase. The aqueous phase was used as the mobile phase.
Partition coefficients were measured using the standard test tube procedure as follows: The two-phase solvent system was prepared as described above. An aliquot of 2 mL of each phase, a total of 4 mL, was delivered in a test tube (13 mm ID×100 mm length) where a desired amount of the ligand and 1-2 mg of sample were added. Then, the test tube was stoppered and the contents were mixed until the resolved sample was completely equilibrated between two phases. Using a vortex mixer, it required 10 successive applications at a few second intervals after the sample was dissolved in the solvent. The tube was stand still until clear two layers were formed. If necessary, the tubes were centrifuged for 2-3 min at 1000×g to accelerate the phase separation. An aliquot of each phase, usually 100 μl, was separately diluted with 2 mL of a suitable diluent, usually methanol, and the absorbance determined with a spectrophotometer, (Zeiss, Hanover, Md., USA) at a desired wavelength. The partition coefficient for each component was obtained by the absorbance of the upper phase divided by that of the lower phase. […]

[2] = n-butanol/water two-phase solvent systems, no ligand; stated as background; cited from earlier work
[3] = methyl t-butyl ether / 0.1 M KH2PO4 (1:1), ligand DEHPA 10%, upper/lower phase

- Partition Coefficient (K) [1]: 0.01
- K value (in words) ([1]; Dopa in zwitterionic form, pH-zone-refining run, Example 5): extremely low K value
Compound: N[C@@H](Cc1ccc(O)c(O)c1)C(=O)O (racemic) [DOPA, 3,4-dihydroxyphenylalanine]

Compound: CCCCC(CC)COP(=O)(O)OCC(CC)CCCC (stereo not shown) [DEHPA, di-(2-ethylhexyl)phosphoric acid]
- K value of the ligand ([1]; ligand almost unilaterally distributed into the organic phase, MBE/aqueous systems): > 100

Compound: CNC[C@H](O)c1ccc(O)c(O)c1 [Epinephrine, epinephrine]
- Partition Coefficient (K) ([1]; methyl t-butyl ether / 0.1 M NH4OAc and 0.5 M HCl (1:1), ligand DEHPA 1.5%, upper/lower phase): 0.4
- Partition Coefficient ([1]; solvent system I: nButanol/H2O): 0.24
- Partition Coefficient ([1]; solvent system II: nButanol/0.1M NH4OAc): 0.13
- Partition Coefficient ([1]; solvent system III: MBE/H2O): 0.06
- Partition Coefficient ([1]; solvent system IV: MBE/0.1M NH4OAc): 0.16
- Partition Coefficient ([1]; solvent system V: MBE/DEHPA/0.1M NH4OAc (9:1:10)): 5.83
- Partition Coefficient ([1]; solvent system VI: MBE/DEHPA/0.05M HCl (9:1:10)): 0.01
- Partition Coefficient ([1]; solvent system VII: MBE/DEHPA/0.1M NH4OAc & 0.05M HCl (9:1:10)): 1.42
- partition (in words) [2]: almost exclusively into the aqueous phase

Compound: COc1cc(C(O)CN)ccc1O (stereo not shown) [Normetanephrine, normetanephrine]
- Partition Coefficient (K) [1]: 0.5

- Partition Coefficient (K) [1]: 1.7
Compound: NCCc1ccc(O)cc1 [Tyramine, tyramine]

Compound: Ala--Tyr
- Partition Coefficient (K) [1, 3]: 0.5

Compound: Gly--Tyr
- Partition Coefficient (K) [1, 3]: 0.1

Compound: Leu--Tyr
- Partition Coefficient (K) [1, 3]: 10

Compound: Tyr--Ala
- Partition Coefficient (K) [1, 3]: 0.8

Compound: Tyr--Gly
- Partition Coefficient (K) [1, 3]: 0.2

Compound: Tyr--Leu
- Partition Coefficient (K) [1, 3]: 18

Compound: Tyr--Val
- Partition Coefficient (K) [1, 3]: 4.9

Compound: Val--Tyr
- Partition Coefficient (K) [1, 3]: 2.8

Source: patent publication US5770083A, “Separation of polar compounds by affinity countercurrent chromatography” (The United States of America as represented by the …, priority 1995, dated 1998)
